What is called melting point is the temperature of the solid-liquid transition. For orientation: CC50 means the concentration giving 50% cytotoxicity. Usually IC50 stands for the concentration needed to halve the response being measured. The MIC is the lowest concentration that inhibits growth of the organism.

Data set [1] is described as follows: Cytotoxicity assay (Alamar Blue). To be noted: human, concentrations 10–0.0032 μg/mL. Format: cell-based. As to the method: In order to verify the safety of maleimides, they were tested for cytotoxicity against human monocytic leukemia cells (THP1) 50% cytotoxic concentration values represent the concentration of compound required to kill 50% of the THP1 cells were calculated (CC50). The selectivity indices were calculated using the formula SI = CC50 /IC50, against promastigotes. […] SIs of 16 and 42 were greater than 781.3.
(§1) In vitro anti-leishmanial assay. The antileishmanial activity of the compounds was tested in vitro against a culture of L. donovani promastigotes. The promastigotes were grown in RPMI 1640 medium supplemented with 10% fetal calf serum (Gibco Chem. Co., 81 Wyman Street, Waltham, MA, USA) at 26 °C. A three day old culture was diluted to 5 × 10^5 promastigotes/mL. Drug dilutions were prepared directly in cell suspension in 96-well plates. Plates were incubated at 26 °C for 48 h and the growth of Leishmania promastigotes was determined by the Alamar blue assay as described earlier. Standard fluorescence was measured on a Fluostar Galaxy plate reader (BMG Lab Technologies, Offenburg, Germany) at an excitation wavelength of 544 nm and an emission wavelength of 590 nm. Pentamidine and amphotericin B were used as the standard anti-leishmanial agents. IC50 values were computed from dose-response curves as above. The tested compounds were diluted with six concentrations (from 40–0.0128 μg/mL). Cytotoxicity assay. The in vitro cytotoxicity was determined against human monocytic leukemia cells (THP1) with a simple colorimetric method using the dye Alamar Blue. […] Cells were grown to a density between 0.2 and 1 × 10^6 cells/mL. Culture medium was replaced every 2–3 days with fresh growth medium. DMSO was used as the solvent, and the test compounds was with six concentrations from 10–0.0032 μg/mL.
The in vitro cytotoxicity was determined against human monocytic leukemia cells (THP1) with a simple colorimetric method using the dye Alamar Blue, which was reported in the reference (Mikus, J.; Steverding, D. A simple colorimetric method to screen drug cytotoxicity against Leishmania, using the dye Alamar Blue. Parasitol Int. 2000, 48(3),265-269.). THP1 suspensions were grown in RPMI-1640 medium supplemented with 10% FBS, 2 mM glutamine, 50 μg/mL […]
were grown to a density between 0.2 and 1×10^6 cells/mL. Culture medium was replaced every 2-3 days with fresh growth medium. DMSO was used as the solvent, and the test compounds was with six concentrations from 10-0.0032μg/mL.

For data set [2], the system named is L. donovani promastigotes. The experiment in a line: In vitro anti-leishmanial assay (Alamar blue, promastigotes). It is filed as cell-based, Leishmania donovani. The conditions noted are these: for IC50: Leishmania donovani, 48 h, read-out: L. donvani IC50; for SI: SI = CC50 /IC50, THP1 vs promastigotes. The procedure: Anti-leishmanial activity in vitro was described in terms of IC50, which is the effective concentration (μg/mL) required to achieve 50% growth inhibition, with promastigotes in their exponential growth phase.
as §1, with “Pentamidine and amphotericin B were used as the standard anti-leishmanial agents.” left out

The subject of the next data set is 10 fungi. Set-up: method as in PMID 21481593. The conditions noted are these: against 10 fungi; cited from earlier work.
A further data set has as its system β-(1,3)-glucan synthase. Set-up: method as in PMID 21612375. To be noted: cited from earlier work.
The mark [3] stands for this setting: THP1 cells (human monocytic leukemia).

≈ marks a conversion by molar mass, not a printed value.

`Cc1cccc(C)c1N1C(=O)C(Cl)=C(Cl)C1=O` [Compound 38]: the melting point was in the range of 200.8 to 201.6 °C. This compound came in with a CC50 in data set [1] (THP1 cells) above 10 µg/mL. Also, in data set [2], the IC50 was 0.45 µg/mL (≈ 1.67 µM) and the SI is above 22.2.

On to `CCc1cccc(CC)c1N1C(=O)C(Cl)=C(Cl)C1=O` [Compound 39], for which the melting point fell in the range of 204.1 to 205.8 °C. Moreover, the CC50 in data set [1] (THP1 cells) is above 10 µg/mL. In data set [2], the IC50 was 0.13 µg/mL (≈ 0.436 µM) and the SI was above 76.9.

The compound `Cc1c(Cl)cccc1N1C(=O)C(Cl)=C(Cl)C1=O` [Compound 40] displayed a melting point of 162.3 to 164.1 °C. The CC50 in data set [1] (THP1 cells) is above 10 µg/mL. In addition, in data set [2], the IC50 was 0.13 µg/mL (≈ 0.447 µM) and the SI is above 76.9.

In the case of `Cc1ccc(Cl)cc1N1C(=O)C(Cl)=C(Cl)C1=O` [Compound 41], the melting point fell in the range of 160.1 to 161.4 °C. The compound further showed a CC50 in data set [1] (THP1 cells) above 10 µg/mL. Moreover, in data set [2], the IC50 is 0.11 µg/mL (≈ 0.379 µM) and the SI is given as above 90.9.

`Cc1c(N2C(=O)C(Cl)=C(Cl)C2=O)cccc1[N+](=O)[O-]` [Compound 42] displayed a melting point of 168.8 to 169.9 °C. Further, the CC50 in data set [1] (setting [3]) is above 10 µg/mL. Besides, in data set [2] (L. donovani, relative to amphotericin B), the “anti-leishmanial activity, times better than amphotericin B” value was 10. Moreover, the IC50 in data set [2] was below 0.0128 µg/mL.

With `CC(C)CN1C(=O)C(Cl)=C(Cl)C1=O` [Compound 44], the melting point lay in the range of 63.8 to 64.5 °C. The compound further displayed a CC50 in data set [1] (setting [3]) above 10 µg/mL. Also, in data set [2], the IC50 worked out at 0.43 µg/mL (≈ 1.94 µM) and the SI was above 23.3.

`O=C1C(Cl)=C(Cl)C(=O)N1C1CCCCC1` [Compound 45]: the melting point was in the range of 67.2 to 68.5 °C. In addition, the CC50 in data set [1] (THP1 cells) is above 10 µg/mL. Besides, in data set [2], the IC50 was determined as 0.26 µg/mL (≈ 1.05 µM) and the SI is on record as above 38.5.

On to `O=C1C=CC(=O)N1CCCCc1ccccc1` [N-(4-phenylbutyl)-maleimide], for which the MIC with 10 fungi was 0.48 to 15.63 µg/mL.

Regarding `CCCCN1C(=O)C=CC1=O` [N-butyl-maleimide], in the data set on 10 fungi, the MIC is 0.48 to 15.63 µg/mL.

Turning to `CCN1C(=O)C=CC1=O` [N-ethyl-maleimide], the “IC50 β-(1,3)-glucan synthase” value in the data set on β-(1,3)-glucan synthase was 8.5 ± 1.1 µg/mL (≈ 67.9 µM).

`CC(C)(C)N1C(=O)C=CC1=O` [N-tert-butyl-maleimide]: in the data set with β-(1,3)-glucan synthase, the “IC50 β-(1,3)-glucan synthase” value is 13.7 ± 2.3 µg/mL (≈ 89.4 µM).
